Measurements as given in US11904004B2, “Anti-CD277 antibodies” (INSTITUT NATIONAL DE LA SANTE ET DE LA RECHERCHE MEDICALE …, priority 2010, dated 2024).
Several values for one entry are separate records, joined by “and”; a condition that tells them apart may be missing. Identical values can stand only once.

How the values were obtained:
Type in all cases: cell-based, human
primary AML blasts [1] = assay: Chromium release assay, lysis of primary AML blasts by Vγ9Vδ2 T cells; conditions: E:T 30:1; ZOL 45 μM O/N, 20.1 mAb 10 μg/ml, BrHpp 2 μM
Description: (§1) Effector γδ T cells were established and maintained as previously described^28. PBMC from HV were stimulated with ZOL (1 μm) and rhlL-2 (200 IU/ml) at Day 0. From Day 5, rhIL-2 was renewed every two days and cells were kept at 1.5×10^6/m1 for 15 days. NK cells were isolated using EASYSEP® Human NK cell enrichment kit (StemCell Technologies). The purity of γδ T cells and NK cells was determined by flow cytometry and respectively greater than 80% and 98%. The Burkitt lymphoma cell line, DAUDI, the human AML cell line, U937, and the erythroleukemic cell line, K562, were obtained from the American Type Culture Collection and cultured (0.5×10^6/ml) in RPMI 1640 medium with 10% FCS. BTN3A Knock-down HEK293FT cells (sh #284; clone #30) were provided by E.Scotet (Inserm U892, Nantes), cultured and transfected with BTN3A1, BTN3A2, BTN3A3 mutated cDNA-containing plasmids, as described^23.
(§2) 0.5×10^6 target cells were incubated with 50 pCi of ^51Cr (Perkin-Elmer) for AML blasts and 10 pCi for DAUDI and K562 cells for 90 minutes and mixed with effector cells in a Effector:Target (E:T) ratio of […]. After 4 hours of incubation at 37° C., 50p1 supernatant of each sample was transferred in LUMA® plates and radioactivity was determined by a gamma counter. The percentage of specific lysis was calculated using the formula [(experimental−spontaneous release/total−spontaneous release)×100] and expressed as the mean of triplicate.

primary AML blasts [2] = assay: Chromium release assay, lysis of primary AML blasts by NK cells
Description: as §1, with “BTN3A Knock-down HEK293FT cells (sh #284; clone #30) were provided by E.Scotet (Inserm U892, Nantes), cultured and transfected with BTN3A1, BTN3A2, BTN3A3 mutated cDNA-containing plasmids, as described^23.” left out
as §2

monocytes = assay: Apoptosis detection (Annexin V), survival of monocytes; conditions: plastic-coated mAb or 20 ng/ml GM-CSF, 3 days (72 hours), Annexin V; representative value and range of five experiments
Description: (§3) Blood samples were obtained from 5 healthy volunteers enrolled among the staff members, after informed consent. Monocytes were separated from peripheral blood mononuclear cells, and isolated using the MACS CD14 isolation kit (Miltenyi Biotech, Auburn, Calif. USA). Monocytes were cultured for 5 days with 200 ng/ml of recombinant human GM-CSF and 10 ng/ml recombinant human IL-4 (Schering-Plough Research Institute). These cells were termed immature dendritic cells (iDC). To achieve the stimulation, monocytes and iDC were cultured with 10 ng/ml of LPS, ligand for TLR4, 30 μg/ml of 8848 (Sigma-Aldrich, Milano, Italy), ligand for TLR7/8 and with […] of poly (I:C) (Sigma-Aldrich), ligand for TLR3, and were harvested after 48 h. The cells were cultured in RPMI 1640 supplemented with 10% heat-inactivated FCS, 5 mM L-glutamine and 50 IU/ml penicillin-streptomycin (from here on referred to as complete medium).
(§4) Monocytes and iDC were cultured on plastic coated with anti-BT3 mAb (clone 20.1) or with isotype-matched irrelevant mAb. As control, the cells were stimulated with 20 ng/ml recombinant human GM-CSF (Schering-Plough Research Institute). After three days, cells were harvested, stained with Annexin V-FITC (Bender MedSystems, Wien, Austria) and analysed by flow cytometry.

[3] = test system: immature dendritic cells (iDC); assay: Apoptosis detection (Annexin V), survival of iDC; conditions: plastic-coated mAb or GM-CSF, 72-h culture, representative value and range of five experiments
Description: as §3, §4

Vγ9Vδ2 T cells = assay: Activation / CD107 degranulation of expanded Vγ9Vδ2 T cells (phosphoantigen or anti-CD3 stimulation); conditions: increasing doses of BrHPP alone
Description: We used for γδ T cells labelling in purity test after expansion, anti-CD3 PE-Cy7 and anti-Vδ2 FITC mAb (BD Pharmingen). For CD277 characterisation in different subsets PBMC were incubated with the following antibodies and molecules: anti-CD3 PE-Cy5 (BD Pharmingen), anti-CD4 PB (BD Pharmingen), anti-CD8 PB (BD Pharmingen), anti-Vδ2 FITC (BD Pharmingen), anti-CD27 APC ALEXA FLUOR® 750 (CALTAG Laboratory), anti-CCR7 PECy7 (BD Pharmingen), anti-CD28 PE (Beckman Coulter), anti-CD45RA ECD (Beckman Coulter), LIVE/DEAD® Fixable Dead Cell Stain Kit (L34957, Invitrogen) and anti-CD277 labelled with ALEXA FLUOR® 647 (Protein labelling Kit ALEXA FLUOR® 647, Molecular Probes, Invitrogen). […] All samples were measured on FACSCANTO® or FACSARIA® flow cytometers (BD Biosciences) using FACSDIVA® software. […]
PBMC were plated and stimulated as described in the paragraph: cell lines and expansion of γδ T cells, except cells were stimulated with anti-CD277 mAbs (10 μg/ml); or control isotypes (10 μg/ml); and with or without BrHPP at different concentrations. […] Percentages of Vγ9Vδ2 were measured the first day and the last day of culture as described above. […] Activation of degranulation was measured by CD107 labelling assay as described above.

Compound: O=P(O)(O)C(O)(Cn1ccnc1)P(=O)(O)O [ZOL, Zoledronate, reference compound]
- enhancement of Vγ9Vδ2 T cells lysis of AML blasts compared with BrHpp (primary AML blasts [1]): significantly more efficient
- NK cells-mediated AML blasts lysis (primary AML blasts [2]): no effect

Compound: GM-CSF: recombinant human GM-CSF, survival control [reference compound]
- monocytes survived in the absence of endogenous survival factors (monocytes): 81.22% and 60.41-83%
- healthy-vital (surviving) iDC [3]: 85.97% and 71.01-85.97%

Compound: CC(O)(CBr)CCOP(=O)(O)OP(=O)(O)O (centres unmarked) [BrHPP]
- CD107 expression (Vγ9Vδ2 T cells): up to 40%
